14 compounds from patent publication US20230373985A1 (Origenis Gmbh, priority 2020, published 2023) can be followed below.

Test [1] concerns the target T1, wt human TYK2, catalytic site (Homo sapiens, UniProt P29597).
T1 construct: wt human TYK2, catalytic site; purchased SignalChem
T1 sequence (P29597 897-1176 limits assumed): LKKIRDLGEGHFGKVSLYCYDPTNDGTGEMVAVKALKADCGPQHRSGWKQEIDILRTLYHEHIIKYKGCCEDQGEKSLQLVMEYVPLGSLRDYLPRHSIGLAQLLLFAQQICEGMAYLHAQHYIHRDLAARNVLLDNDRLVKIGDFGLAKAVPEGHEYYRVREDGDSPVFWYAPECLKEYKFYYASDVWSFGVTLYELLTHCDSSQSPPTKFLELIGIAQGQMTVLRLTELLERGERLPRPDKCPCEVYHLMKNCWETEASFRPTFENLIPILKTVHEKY
Briefly: HTRF KinEASE assay, TYK2. Type of test: biochemical. The settings on record: 1 μM ATP; read-out: IC50, Activity Toward TYK2. The method, boiled down:
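HTRF KinEASE-TK readout with 1 μM biotinylated TK substrate in 1× kinase buffer, ≥30 min at room temperature, then antibody/streptavidin-XL665 detection for 60 min. TYK2 at 2 nM with 1 μM ATP; JAK2 at 1 nM with 100 μM ATP. Analysis uses emission ratios.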
(In general: In TR-FRET formats the signal depends on donor and acceptor labels being close together.)

Test [2] addresses T2, wt human LRRK2, catalytic site (Homo sapiens, UniProt Q5S007).
T2 construct: 5 nM wt human LRRK2, catalytic site; purchased ThermoFisher
Briefly: TR-FRET LanthaScreen Eu Kinase Binding Assay, LRRK2 wt. The settings on record: one range stated for wt and G2019, read-out: IC50, Activity Toward LRRK2(Wt). The method, boiled down: (§1)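 Competitive tracer-displacement TR-FRET, 1 h at room temperature, read as emission ratio. LRRK2 (wt or G2019S catalytic domain) at 5 nM with 2 nM Eu-anti-GST and 10 nM Tracer 236; full-length NUAK1 at 8 nM with 2 nM Eu-anti-His and 5 nM Tracer 236, all final in Kinase Buffer A.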

Test [3] addresses T3, G2019S human LRRK2, catalytic site (Homo sapiens, UniProt Q5S007, G2019S).
T3 construct: G2019S human LRRK2, catalytic site; purchased ThermoFisher
Briefly: TR-FRET LanthaScreen Eu Kinase Binding Assay, LRRK2 G2019S. The settings on record: LRRK2(G2019); one range stated for wt and G2019; read-out: IC50, Activity Toward LRRK2(G2019). The method, boiled down: as §1

Test [4] addresses T4, wt human JAK1, catalytic site (Homo sapiens, UniProt P23458).
T4 construct: wt human JAK1, catalytic site; purchased ThermoFisher
Briefly: HTRF KinEASE assay, JAK1. Type of test: biochemical. The settings on record: 2.5 μM ATP; read-out: IC50, Activity Toward JAK1. The method in brief: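 Two-step HTRF KinEASE assay: compound, kinase/biotinylated TK substrate and ATP were incubated at least 30 min at room temperature. Antibody plus streptavidin-XL665 was then added and plates were read after 60 min. Inhibition was derived from emission ratios according to the kit protocol.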

Test [5] deals with T5, wt human JAK2, catalytic site (Homo sapiens, UniProt O60674).
T5 construct: wt human JAK2, catalytic site; purchased SignalChem
T5 sequence (O60674 849-1124 limits assumed): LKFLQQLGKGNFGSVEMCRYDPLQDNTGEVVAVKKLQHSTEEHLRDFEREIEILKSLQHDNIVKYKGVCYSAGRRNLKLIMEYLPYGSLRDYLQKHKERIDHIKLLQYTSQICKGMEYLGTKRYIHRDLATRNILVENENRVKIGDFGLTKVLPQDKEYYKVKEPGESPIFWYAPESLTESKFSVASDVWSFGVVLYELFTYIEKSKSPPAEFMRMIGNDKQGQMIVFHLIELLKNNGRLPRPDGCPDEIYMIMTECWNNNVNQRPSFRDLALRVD
Briefly: HTRF KinEASE assay, JAK2. Type of test: biochemical. The settings on record: assay format not given (Z'-LYTE or HTRF KinEASE); read-out: IC50, Activity Toward JAK2. How it is done: Basic protocol for HTRF KinEASE assay (Cisbio/FRA) inhibitor studies involved two steps: • Enzymatic step: Addition of 4 μL of test compound in corresponding DMSO dilutions, 4 μL of kinase/substrate mixture, 2 μL of ATP into 384 well small volume plates. Incubation for at least 30 minutes at room temperature. • Detection step: Addition of 5 μL antibody and 5 μL streptavidin-XL665, read plate after 60 minutes. Data analysis of emission ratios according KinEASE assay protocol.
(§2) Kinase and assay components were adjusted to final concentrations according to kit protocol. For TYK2: 2 nM wt human TYK2, catalytic site (SignalChem/CAN), 1 μM HTRF KinEASE-TK Substrate-biotin, 1 μM ATP in 1× Kinase Buffer. For JAK1: 4 nM wt human JAK1, catalytic site (ThermoFisher/USA), 1 μM HTRF KinEASE-TK Substrate-biotin, 2.5 μM ATP in 1× Kinase Buffer. For JAK2: 1 nM wt human JAK2, catalytic site (SignalChem/CAN), 1 μM HTRF KinEASE-TK Substrate-biotin, 100 μM ATP in 1× Kinase Buffer.
as §2

Test [6] concerns the target T6, wt human NUAK1, full length (Homo sapiens, UniProt O60285).
T6 construct: 8 nM wt human NUAK1, full length (ThermoFisher/USA); purchased ThermoFisher
T6 sequence (O60285 1-661): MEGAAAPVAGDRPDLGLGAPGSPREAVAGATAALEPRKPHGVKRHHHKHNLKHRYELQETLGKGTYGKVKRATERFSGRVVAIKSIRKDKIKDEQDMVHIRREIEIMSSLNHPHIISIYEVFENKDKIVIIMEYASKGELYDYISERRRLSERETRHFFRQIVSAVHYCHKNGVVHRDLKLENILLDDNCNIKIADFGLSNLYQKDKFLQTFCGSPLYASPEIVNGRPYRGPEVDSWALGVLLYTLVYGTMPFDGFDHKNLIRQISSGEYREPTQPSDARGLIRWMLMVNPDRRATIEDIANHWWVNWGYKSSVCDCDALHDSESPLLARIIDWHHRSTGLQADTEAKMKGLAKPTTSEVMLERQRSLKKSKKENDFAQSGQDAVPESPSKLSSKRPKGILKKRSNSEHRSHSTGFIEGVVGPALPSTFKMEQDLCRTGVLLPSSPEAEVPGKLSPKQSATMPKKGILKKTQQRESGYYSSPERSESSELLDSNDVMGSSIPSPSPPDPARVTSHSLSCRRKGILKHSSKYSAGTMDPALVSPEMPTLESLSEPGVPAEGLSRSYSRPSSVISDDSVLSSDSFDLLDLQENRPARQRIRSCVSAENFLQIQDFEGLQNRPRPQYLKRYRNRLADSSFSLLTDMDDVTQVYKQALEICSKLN
Briefly: TR-FRET LanthaScreen Eu Kinase Binding Assay, NUAK1. The settings on record: read-out: IC50, Activity Toward NUAK1. The method, boiled down: as §1

A value given as a limit tells only on which side of the number the result lay.

T4 sequence (P23458 875-1153 limits assumed): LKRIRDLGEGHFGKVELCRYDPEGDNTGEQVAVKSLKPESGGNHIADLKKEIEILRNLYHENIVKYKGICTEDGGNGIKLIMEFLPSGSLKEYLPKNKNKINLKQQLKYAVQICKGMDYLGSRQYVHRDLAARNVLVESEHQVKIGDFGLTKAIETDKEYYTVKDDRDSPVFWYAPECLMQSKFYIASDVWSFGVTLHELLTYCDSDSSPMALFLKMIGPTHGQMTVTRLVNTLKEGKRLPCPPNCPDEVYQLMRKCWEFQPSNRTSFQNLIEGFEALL
T2 sequence (Q5S007 970-2527 limits assumed): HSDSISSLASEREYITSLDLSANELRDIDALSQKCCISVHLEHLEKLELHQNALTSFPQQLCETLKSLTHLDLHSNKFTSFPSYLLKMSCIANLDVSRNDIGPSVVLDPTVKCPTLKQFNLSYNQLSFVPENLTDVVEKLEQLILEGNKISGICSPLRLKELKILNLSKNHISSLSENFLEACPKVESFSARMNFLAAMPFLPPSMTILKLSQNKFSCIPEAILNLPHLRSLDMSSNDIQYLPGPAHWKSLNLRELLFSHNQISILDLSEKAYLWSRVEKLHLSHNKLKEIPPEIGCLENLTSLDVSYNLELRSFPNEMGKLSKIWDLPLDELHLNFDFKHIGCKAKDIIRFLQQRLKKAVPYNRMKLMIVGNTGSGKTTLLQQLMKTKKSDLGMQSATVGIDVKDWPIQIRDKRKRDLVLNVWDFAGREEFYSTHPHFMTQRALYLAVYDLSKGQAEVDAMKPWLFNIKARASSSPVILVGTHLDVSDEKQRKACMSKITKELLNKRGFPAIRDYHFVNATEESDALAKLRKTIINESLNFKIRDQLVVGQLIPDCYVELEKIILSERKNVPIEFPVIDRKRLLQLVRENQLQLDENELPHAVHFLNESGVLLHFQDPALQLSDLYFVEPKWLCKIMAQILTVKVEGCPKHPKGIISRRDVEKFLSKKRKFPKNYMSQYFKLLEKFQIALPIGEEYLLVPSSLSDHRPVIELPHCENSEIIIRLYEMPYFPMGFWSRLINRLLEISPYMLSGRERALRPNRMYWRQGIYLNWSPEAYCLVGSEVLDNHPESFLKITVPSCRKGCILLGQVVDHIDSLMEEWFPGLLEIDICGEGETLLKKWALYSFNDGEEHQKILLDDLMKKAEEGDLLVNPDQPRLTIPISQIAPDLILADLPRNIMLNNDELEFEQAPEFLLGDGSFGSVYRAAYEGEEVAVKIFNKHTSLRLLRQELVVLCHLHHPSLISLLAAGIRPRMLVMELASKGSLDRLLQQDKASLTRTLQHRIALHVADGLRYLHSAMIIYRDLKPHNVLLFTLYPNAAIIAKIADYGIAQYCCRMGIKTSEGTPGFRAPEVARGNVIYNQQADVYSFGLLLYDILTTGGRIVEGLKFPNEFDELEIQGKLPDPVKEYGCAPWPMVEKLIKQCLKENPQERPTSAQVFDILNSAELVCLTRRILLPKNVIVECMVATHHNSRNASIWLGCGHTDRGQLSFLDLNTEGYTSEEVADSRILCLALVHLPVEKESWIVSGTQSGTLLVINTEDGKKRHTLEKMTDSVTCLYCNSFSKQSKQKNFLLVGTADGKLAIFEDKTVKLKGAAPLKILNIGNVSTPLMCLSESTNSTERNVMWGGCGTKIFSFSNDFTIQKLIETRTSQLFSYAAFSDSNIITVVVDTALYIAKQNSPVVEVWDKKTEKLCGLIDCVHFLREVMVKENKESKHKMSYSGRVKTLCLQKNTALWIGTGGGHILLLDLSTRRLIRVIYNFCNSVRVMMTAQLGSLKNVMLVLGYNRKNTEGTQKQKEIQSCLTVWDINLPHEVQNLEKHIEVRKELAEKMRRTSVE
T3 sequence (Q5S007 970-2527 G2019S limits assumed): as the sequence (Q5S007 970-2527 limits assumed) above, with G1050S counted along it

The IC50 is the point on the concentration scale where inhibition reaches its midpoint. As for `NC(=O)c1nn(-c2c(Cl)cccc2Cl)cc1Nc1ccc(C(=O)N2CCOCC2)cc1` [compound 17, 1-(2,6-dichlorophenyl)-4-((4-(morpholine-4-carbonyl)phenyl)amino)-1H-pyrazole-3-carboxamide], the IC50 in test [1] was less than 10 nM; in test [2], 100 to 1000 nM; in test [3], 100 to 1000 nM; in test [4], 10 to 100 nM; in test [5], 100 to 1000 nM.
As for `CN1CCN(C(=O)c2ccc(Nc3cn(-c4c(Cl)cccc4Cl)nc3C(N)=O)cc2)CC1` [compound 32, 1-(2,6-dichlorophenyl)-4-((4-(4-methylpiperazine-1-carbonyl)phenyl)amino)-1H-pyrazole-3-carboxamide], the IC50 in test [1] is less than 10 nM; in test [2], 100 to 1000 nM; in test [3], 100 to 1000 nM; in test [4] it was 10 to 100 nM; in test [5], 100 to 1000 nM.
Consider `NC(=O)c1nn(-c2c(Cl)cccc2Cl)cc1Nc1ccc(-c2nnc3n2CCOC3)cc1` [compound 57, 1-(2,6-dichlorophenyl)-4-((4-(6,8-dihydro-5H-[1,2,4]triazolo[3,4-c][1,4]oxazin-3-yl)phenyl)amino)-1H-pyrazole-3-carboxamide], for which the IC50 is less than 10 nM in test [1]; 100 to 1000 nM in test [2]; 100 to 1000 nM in test [3]; 100 to 1000 nM in test [4]; 100 to 1000 nM in test [5].
On to `NC(=O)c1nn(-c2c(Cl)cccc2Cl)nc1Nc1ccc(C(=O)N2CCOCC2)cc1` [compound 101, 2-(2,6-Dichloro-phenyl)-5-[4-(morpholine-4-carbonyl)-phenylamino]-2H-[1,2,3]triazole-4-carboxylic acid amide], for which the IC50 in test [1] was less than 10 nM; in test [6] it was 100 to 1000 nM; in test [4], less than 10 nM; in test [5], 100 to 1000 nM.
For the compound `CN1CCN(C(=O)c2ccc(Nc3nn(-c4c(Cl)cccc4Cl)nc3C(N)=O)cc2)CC1` [compound 102, 2-(2,6-Dichloro-phenyl)-5-[4-(4-methyl-piperazine-1-carbonyl)-phenylamino]-2H-[1,2,3]triazole-4-carboxylic acid amide], the IC50 in test [1] was less than 10 nM; in test [6] it was 100 to 1000 nM; in test [4] it was less than 10 nM; in test [5] it was 100 to 1000 nM.
Regarding `NC(=O)c1nn(-c2c(Cl)cccc2Cl)nc1Nc1ccc(C(=O)N2CC(C(N)=O)C2)cc1` [compound 108], the IC50 in test [1] is less than 10 nM; in test [2], 100 to 1000 nM; in test [3], 100 to 1000 nM; in test [4], less than 10 nM; in test [5] it was 100 to 1000 nM.
`NC(=O)c1nn(-c2c(Cl)cccc2Cl)nc1Nc1ccc(-c2nncn2CC(F)F)cc1` [compound 113, 2-(2,6-dichlorophenyl)-5-((4-(4-(2,2-difluoroethyl)-4H-1,2,4-triazol-3-yl)phenyl)amino)-2H-1,2,3-triazole-4-carboxamide]: the IC50 in test [1] was 10 to 100 nM; in test [2] it was 100 to 1000 nM; in test [3], 100 to 1000 nM; in test [4] it was less than 10 nM; in test [5], 100 to 1000 nM.
Consider `CN(C)C1CCN(C(=O)c2ccc(Nc3nn(-c4c(Cl)cccc4Cl)nc3C(N)=O)cc2)CC1` [compound 122, 2-(2,6-dichlorophenyl)-5-((4-(4-(dimethylamino)piperidine-1-carbonyl)phenyl)amino)-2H-1,2,3-triazole-4-carboxamide], for which the IC50 is less than 10 nM in test [1]; 100 to 1000 nM in test [2]; 100 to 1000 nM in test [3]; 10 to 100 nM in test [4]; 100 to 1000 nM in test [5].
As for `NC(=O)c1nn(-c2c(Cl)cccc2Cl)nc1Nc1ccc(C(=O)N2CC(F)C2)cc1` [compound 129, 2-(2,6-dichlorophenyl)-5-((4-(3-fluoroazetidine-1-carbonyl)phenyl)amino)-2H-1,2,3-triazole-4-carboxamide], the IC50 in test [1] is less than 10 nM; in test [2], 100 to 1000 nM; in test [3], 100 to 1000 nM; in test [4], less than 10 nM; in test [5], 100 to 1000 nM.
On to `Cc1cnnn1-c1ccc(Nc2nn(-c3c(Cl)cccc3Cl)nc2C(N)=O)cc1` [compound 131, 2-(2,6-dichlorophenyl)-5-((4-(5-methyl-1H-1,2,3-triazol-1-yl)phenyl)amino)-2H-1,2,3-triazole-4-carboxamide], for which the IC50 in test [1] is less than 10 nM; in test [2], 100 to 1000 nM; in test [3], 100 to 1000 nM; in test [4] it was 10 to 100 nM; in test [5], 100 to 1000 nM.
Regarding `CCc1cnncc1-c1ccc(Nc2cn(-c3c(Cl)cccc3Cl)nc2C(N)=O)cc1` [compound 322, 1-(2,6-dichlorophenyl)-4-((4-(5-ethylpyridazin-4-yl)phenyl)amino)-1H-pyrazole-3-carboxamide], the IC50 in test [1] is 10 to 100 nM; in test [2], 100 to 1000 nM; in test [3], 100 to 1000 nM; in test [4], 10 to 100 nM; in test [5] it was 100 to 1000 nM.
Take `NC(=O)c1nn(-c2c(Cl)cccc2Cl)cc1Nc1ccc(-n2ncnc2C2COC2)cc1` [compound 347, 1-(2,6-dichlorophenyl)-4-((4-(5-(oxetan-3-yl)-1H-1,2,4-triazol-1-yl)phenyl)amino)-1H-pyrazole-3-carboxamide]: the IC50 in test [1] is less than 10 nM; in test [2], 100 to 1000 nM; in test [3], 100 to 1000 nM; in test [4], 10 to 100 nM; in test [5], 100 to 1000 nM.
Consider `CCn1cnnc1-c1ccc(Nc2cn(-c3c(Cl)cc(F)cc3Cl)nc2C(N)=O)cc1` [compound 414, 1-(2,6-dichloro-4-fluorophenyl)-4-((4-(4-ethyl-4H-1,2,4-triazol-3-yl)phenyl)amino)-1H-pyrazole-3-carboxamide], for which the IC50 in test [1] was less than 10 nM; in test [2] it was 100 to 1000 nM; in test [3] it was 100 to 1000 nM; in test [4], 10 to 100 nM; in test [5], 100 to 1000 nM.
As for `NC(=O)c1nn(-c2c(Cl)cccc2Cl)cc1Nc1ccc(C(=O)N2CC(F)C2)cc1` [compound 425, 1-(2,6-dichlorophenyl)-4-((4-(3-fluoroazetidine-1-carbonyl)phenyl)amino)-1H-pyrazole-3-carboxamide], the IC50 is less than 10 nM in test [1]; 100 to 1000 nM in test [2]; 100 to 1000 nM in test [3]; 10 to 100 nM in test [4]; 100 to 1000 nM in test [5].
